pKd: −log10 of the molar value.
Experiments:
[1] = target: T1, hWNK2 (Homo sapiens, UniProt Q9Y3S1); assay: MST, WNK kinase family member WNK2; assay type: binding
T1 construct: host or cells: HEK293T
Protocol: To validate the direct binding of bilirubin to WNK1, we performed a Microscale Thermophoresis (MST) analysis, which assesses the binding capacity of a compound by measuring the movement of proteins over a microscopic temperature gradient.^[ [26], [27] ^] We overexpressed full‐length WNK1 fused with Green Fluorescent Protein (GFP) in HEK‐293 cells, incubated the lysates with bilirubin at varying dilutions, and subjected them to precise MST measurements in capillaries. […] Furthermore, biliverdin, a structurally similar intermediate product generated before bilirubin formation, was used as a control.
All WNK1 clones were derived from the original untagged hWNK1 cDNA (NM_018979), which was modified and subcloned into the pcDNA3.1, referred to as “full‐length WNK1” throughout this study. Truncated constructs, including 1–190aa, 191–491aa, 1–491aa, and 491–2382aa fragments, were generated by PCR using the full‐length template and subsequently ligated into linearized pcDNA3.1 vectors. WNK2 was obtained from Addgene Plasmid #24569, and WNK3 was obtained from Addgene Plasmid #81723. Both were subjected to base modifications and cloned into pcDNA3.1. The WNK4 clone was derived from hWNK4 cDNA (NM_032387.5), modified, and subcloned into the pCMV3‐C‐GFPSpark vector.
In HEK293T cells, proteins tagged with green fluorescent protein (GFP) were expressed. […]

[2] = tested on: cochlear nuclei and hippocampus neurons; assay: Neuronal excitability in cochlear nuclei and hippocampus neurons; assay type: cell-based
Text: To ascertain whether bilirubin regulates chloride ions through WNK1, we generated Wnk1 gene knockout primary cultured neurons. We achieved neuron‐specific deletion of Wnk1 in hippocampal neurons by transducing primary neurons isolated from Wnk1^flox/flox embryonic mice with a lentivirus expressing hSyn‐Cre‐EGFP.^[ [33], [34] ^] […] Intracellular chloride concentration is crucial for modulating inhibitory synaptic transmission and, consequently, neuronal excitability.

T1 sequence (Q9Y3S1 whole entry): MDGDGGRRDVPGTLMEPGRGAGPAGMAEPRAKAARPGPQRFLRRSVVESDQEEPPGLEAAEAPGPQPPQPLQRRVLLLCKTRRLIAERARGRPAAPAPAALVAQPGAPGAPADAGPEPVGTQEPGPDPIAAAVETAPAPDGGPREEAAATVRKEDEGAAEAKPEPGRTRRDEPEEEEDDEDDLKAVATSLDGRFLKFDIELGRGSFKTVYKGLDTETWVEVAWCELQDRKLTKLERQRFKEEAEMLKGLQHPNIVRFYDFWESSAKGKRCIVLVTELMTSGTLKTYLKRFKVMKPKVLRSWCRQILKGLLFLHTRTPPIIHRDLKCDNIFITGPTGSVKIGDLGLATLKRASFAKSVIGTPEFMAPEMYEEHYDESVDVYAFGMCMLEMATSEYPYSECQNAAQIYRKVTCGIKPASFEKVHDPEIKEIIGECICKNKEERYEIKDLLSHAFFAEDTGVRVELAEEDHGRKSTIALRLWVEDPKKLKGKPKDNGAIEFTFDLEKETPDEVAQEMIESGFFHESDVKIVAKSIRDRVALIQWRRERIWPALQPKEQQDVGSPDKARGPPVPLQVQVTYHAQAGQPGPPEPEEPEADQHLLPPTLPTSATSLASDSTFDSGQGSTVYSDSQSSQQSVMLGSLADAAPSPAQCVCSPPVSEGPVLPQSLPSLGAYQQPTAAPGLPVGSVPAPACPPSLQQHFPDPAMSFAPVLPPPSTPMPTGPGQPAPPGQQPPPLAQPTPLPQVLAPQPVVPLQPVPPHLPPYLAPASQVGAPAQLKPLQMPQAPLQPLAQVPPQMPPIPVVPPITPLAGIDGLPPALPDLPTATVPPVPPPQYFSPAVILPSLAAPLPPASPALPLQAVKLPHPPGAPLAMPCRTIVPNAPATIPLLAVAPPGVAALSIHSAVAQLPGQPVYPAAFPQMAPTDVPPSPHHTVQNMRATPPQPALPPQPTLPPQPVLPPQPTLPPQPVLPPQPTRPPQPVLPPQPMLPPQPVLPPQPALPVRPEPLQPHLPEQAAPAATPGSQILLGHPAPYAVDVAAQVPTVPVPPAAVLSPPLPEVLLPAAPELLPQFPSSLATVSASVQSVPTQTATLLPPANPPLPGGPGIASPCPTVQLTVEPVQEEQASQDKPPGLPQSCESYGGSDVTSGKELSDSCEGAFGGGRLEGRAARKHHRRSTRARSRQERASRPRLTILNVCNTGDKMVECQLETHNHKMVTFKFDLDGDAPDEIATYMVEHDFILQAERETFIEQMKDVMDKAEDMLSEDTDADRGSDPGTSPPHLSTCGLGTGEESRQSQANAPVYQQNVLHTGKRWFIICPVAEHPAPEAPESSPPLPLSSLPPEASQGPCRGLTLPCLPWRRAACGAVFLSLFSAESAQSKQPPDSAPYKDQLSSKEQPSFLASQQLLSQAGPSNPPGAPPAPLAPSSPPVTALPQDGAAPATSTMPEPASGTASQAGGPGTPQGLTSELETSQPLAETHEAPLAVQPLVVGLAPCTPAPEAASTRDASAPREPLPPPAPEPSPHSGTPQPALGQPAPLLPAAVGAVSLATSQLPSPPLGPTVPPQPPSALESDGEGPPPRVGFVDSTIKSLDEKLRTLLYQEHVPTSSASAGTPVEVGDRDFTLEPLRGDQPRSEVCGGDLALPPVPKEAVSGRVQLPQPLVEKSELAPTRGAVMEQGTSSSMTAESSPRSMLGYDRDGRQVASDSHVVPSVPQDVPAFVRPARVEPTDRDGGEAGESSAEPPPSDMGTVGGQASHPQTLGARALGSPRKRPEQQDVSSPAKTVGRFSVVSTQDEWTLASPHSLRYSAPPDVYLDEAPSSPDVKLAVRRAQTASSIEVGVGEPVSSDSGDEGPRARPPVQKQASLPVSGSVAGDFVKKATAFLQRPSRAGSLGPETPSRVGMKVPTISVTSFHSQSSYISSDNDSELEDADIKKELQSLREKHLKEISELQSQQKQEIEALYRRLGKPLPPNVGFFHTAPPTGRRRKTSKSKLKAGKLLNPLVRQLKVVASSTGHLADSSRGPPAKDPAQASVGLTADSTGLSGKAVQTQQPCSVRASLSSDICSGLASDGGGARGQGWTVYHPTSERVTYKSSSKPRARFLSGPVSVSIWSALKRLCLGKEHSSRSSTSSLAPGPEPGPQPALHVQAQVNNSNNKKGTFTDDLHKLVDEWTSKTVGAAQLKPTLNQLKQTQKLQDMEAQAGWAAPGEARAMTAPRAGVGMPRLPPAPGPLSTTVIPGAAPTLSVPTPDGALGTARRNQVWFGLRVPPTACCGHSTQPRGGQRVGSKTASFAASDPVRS

## C=CC1=C(C)/C(=C/c2[nH]c(Cc3[nH]c(/C=C4\NC(=O)C(C)=C4C=C)c(C)c3CCC(=O)O)c(CCC(=O)O)c2C)NC1=O [bilirubin, Bilirubin]
[1]
  pKd: 6.28
[2]
  neural excitability: induces neural hyperexcitability
